Results taken from PubChem BioAssay AID1963864 (Molecular Pharmacology Branch, DTP, NCI, 2024).

Tested on: KRAS PDC multicell spheroid viability
Assay: Anticancer human tumor 521955-158-R6-J3-PDC patient-derived pancreatic carcinoma cell line growth inhibition [KRAS2]
Settings: for IC50: curve of first compound; for viability, T/C: stronger effect = lower value
How it was run: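 KRAS-mutant tumor cells were grown as spheroids with HUVEC endothelial cells and human MSCs as stroma. Targeted agents were tested alone and with KRAS pathway inhibitors. Doses started at or near clinical Cmax, or 10 microM, descending half-log.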

[1] = second compound 0.1 µM, first compound 0.000316 µM
[2] = second compound 0.1 µM, first compound 0.001 µM
[3] = second compound 0.1 µM, first compound 0.00316 µM
[4] = second compound 0.1 µM, first compound 0.01 µM
[5] = second compound 0.1 µM, first compound 0.0316 µM
[6] = second compound 0.316 µM, first compound 0.000316 µM
[7] = second compound 0.316 µM, first compound 0.001 µM
[8] = second compound 0.316 µM, first compound 0.00316 µM
[9] = second compound 0.316 µM, first compound 0.01 µM
[10] = second compound 0.316 µM, first compound 0.0316 µM
[11] = second compound 1 µM, first compound 0.000316 µM
[12] = second compound 1 µM, first compound 0.001 µM
[13] = second compound 1 µM, first compound 0.00316 µM
[14] = second compound 1 µM, first compound 0.01 µM
[15] = second compound 1 µM, first compound 0.0316 µM
[16] = second compound 3.16 µM, first compound 0.000316 µM
[17] = second compound 3.16 µM, first compound 0.001 µM
[18] = second compound 3.16 µM, first compound 0.00316 µM
[19] = second compound 3.16 µM, first compound 0.01 µM
[20] = second compound 3.16 µM, first compound 0.0316 µM
[21] = second compound 10 µM, first compound 0.000316 µM
[22] = second compound 10 µM, first compound 0.001 µM
[23] = second compound 10 µM, first compound 0.00316 µM
[24] = second compound 10 µM, first compound 0.01 µM
[25] = second compound 10 µM, first compound 0.0316 µM
[26] = second compound 0.1 µM, first compound 0.1 µM
[27] = second compound 0.316 µM, first compound 0.1 µM
[28] = second compound 1 µM, first compound 0.1 µM
[29] = second compound 3.16 µM, first compound 0.1 µM
[30] = second compound 10 µM, first compound 0.1 µM
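Also: drug exposure lasted seven days.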
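For viability, T/C in this document: 100% = DMSO vehicle wells and lower means fewer viable cells.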

## CC(=O)Nc1cccc(-n2c(=O)n(C3CC3)c(=O)c3c(Nc4ccc(I)cc4F)n(C)c(=O)c(C)c32)c1 + CNCc1ccccc1-c1csc(C(C)Nc2nc(C)nc3cc(OC)c(OC)cc23)c1
Second compound 0.1 µM
  IC50: 16.7 nM
Second compound 0.316 µM
  IC50: 15.1 nM
Second compound 1 µM
  IC50: 4.73 nM
Second compound 3.16 µM
  IC50: < 0.1 nM
Second compound 10 µM
  IC50: < 0.1 nM
Second compound 0.1 µM, first compound 0.0001 µM
  viability, T/C: 84.3%
[1]
  viability, T/C: 83.3%
[2]
  viability, T/C: 88.9%
[3]
  viability, T/C: 75%
[4]
  viability, T/C: 60.7%
[5]
  viability, T/C: 37.4%
Second compound 0.316 µM, first compound 0.0001 µM
  viability, T/C: 70.3%
[6]
  viability, T/C: 90.2%
[7]
  viability, T/C: 80.8%
[8]
  viability, T/C: 72.4%
[9]
  viability, T/C: 60%
[10]
  viability, T/C: 33.2%
Second compound 1 µM, first compound 0.0001 µM
  viability, T/C: 69.1%
[11]
  viability, T/C: 76.6%
[12]
  viability, T/C: 65.9%
[13]
  viability, T/C: 58.4%
[14]
  viability, T/C: 35.3%
[15]
  viability, T/C: 12.3%
Second compound 3.16 µM, first compound 0.0001 µM
  viability, T/C: 1.97%
[16]
  viability, T/C: 0.17%
[17]
  viability, T/C: 7.16%
[18]
  viability, T/C: 2.18%
[19]
  viability, T/C: 8.31%
[20]
  viability, T/C: 1.89%
Second compound 10 µM, first compound 0.0001 µM
  viability, T/C: 2.4%
[21]
  viability, T/C: 1.9%
[22]
  viability, T/C: 0.16%
[23]
  viability, T/C: 0.16%
[24]
  viability, T/C: 4.06%
[25]
  viability, T/C: 0.45%

## CC(=O)OC12COC1CC(O)C1(C)C(=O)C(O)C3=C(C)C(OC(=O)C(O)C(NC(=O)OC(C)(C)C)c4ccccc4)CC(O)(C(OC(=O)c4ccccc4)C21)C3(C)C (stereo not given) + CNCc1ccccc1-c1csc(C(C)Nc2nc(C)nc3cc(OC)c(OC)cc23)c1
Second compound 0.1 µM
  IC50: > 3160 nM
Second compound 0.316 µM
  IC50: > 3160 nM
Second compound 1 µM
  IC50: > 3160 nM
Second compound 3.16 µM
  IC50: < 10 nM
Second compound 10 µM
  IC50: < 10 nM
[4]
  viability, T/C: 68.7%
[5]
  viability, T/C: 67.6%
[26]
  viability, T/C: 72.9%
Second compound 0.1 µM, first compound 0.316 µM
  viability, T/C: 82.2%
Second compound 0.1 µM, first compound 1 µM
  viability, T/C: 85.6%
Second compound 0.1 µM, first compound 3.16 µM
  viability, T/C: 96.1%
[9]
  viability, T/C: 70.4%
[10]
  viability, T/C: 64.7%
[27]
  viability, T/C: 69.9%
Second compound 0.316 µM, first compound 0.316 µM
  viability, T/C: 60.6%
Second compound 0.316 µM, first compound 1 µM
  viability, T/C: 92%
Second compound 0.316 µM, first compound 3.16 µM
  viability, T/C: 93.7%
[14]
  viability, T/C: 75.3%
[15]
  viability, T/C: 70.6%
[28]
  viability, T/C: 73.8%
Second compound 1 µM, first compound 0.316 µM
  viability, T/C: 83.6%
Second compound 1 µM, first compound 1 µM
  viability, T/C: 94.8%
Second compound 1 µM, first compound 3.16 µM
  viability, T/C: 98.1%
[19]
  viability, T/C: 0.42%
[20]
  viability, T/C: 72.7%
[29]
  viability, T/C: 0.72%
Second compound 3.16 µM, first compound 0.316 µM
  viability, T/C: 1.02%
Second compound 3.16 µM, first compound 1 µM
  viability, T/C: 3.04%
Second compound 3.16 µM, first compound 3.16 µM
  viability, T/C: 130%
[24]
  viability, T/C: 1.35%
[25]
  viability, T/C: 0.32%
[30]
  viability, T/C: 0.53%
Second compound 10 µM, first compound 0.316 µM
  viability, T/C: 0.88%
Second compound 10 µM, first compound 1 µM
  viability, T/C: 0.31%
Second compound 10 µM, first compound 3.16 µM
  viability, T/C: 0.89%

## CN(C)C/C=C/C(=O)Nc1cc2c(Nc3ccc(F)c(Cl)c3)ncnc2cc1O[C@H]1CCOC1 + CNCc1ccccc1-c1csc(C(C)Nc2nc(C)nc3cc(OC)c(OC)cc23)c1
Second compound 0.1 µM
  IC50: > 100 nM
Second compound 0.316 µM
  IC50: > 100 nM
Second compound 1 µM
  IC50: > 100 nM
Second compound 3.16 µM
  IC50: 1.98 nM
Second compound 10 µM
  IC50: < 0.316 nM
[1]
  viability, T/C: 82.2%
[2]
  viability, T/C: 77.5%
[3]
  viability, T/C: 79.8%
[4]
  viability, T/C: 81.3%
[5]
  viability, T/C: 55%
[26]
  viability, T/C: 53.6%
[6]
  viability, T/C: 82.9%
[7]
  viability, T/C: 77.8%
[8]
  viability, T/C: 64.8%
[9]
  viability, T/C: 71.9%
[10]
  viability, T/C: 58.3%
[27]
  viability, T/C: 56.7%
[11]
  viability, T/C: 98.4%
[12]
  viability, T/C: 68.2%
[13]
  viability, T/C: 59.1%
[14]
  viability, T/C: 50.7%
[15]
  viability, T/C: 50.8%
[28]
  viability, T/C: 53%
[16]
  viability, T/C: 94.9%
[17]
  viability, T/C: 106%
[18]
  viability, T/C: 0.33%
[19]
  viability, T/C: 0.98%
[20]
  viability, T/C: 58.9%
[29]
  viability, T/C: 2.28%
[21]
  viability, T/C: 0.34%
[22]
  viability, T/C: 0.24%
[23]
  viability, T/C: 0.21%
[24]
  viability, T/C: 0.52%
[25]
  viability, T/C: 0.26%
[30]
  viability, T/C: 0.44%
